We go through 15 compounds from US20040266766A1, “Selective urokinase inhibitors” (Wilex AG, priority 2001, published 2004).

Counter-ions that a name gives are not always drawn. Some results are limits rather than exact numbers.

The term Ki denotes the dissociation constant of the complex between target and ligand, obtained from inhibition or displacement.

The first assay concerns the target T1, urokinase (uPA) (Homo sapiens, UniProt P00749).
T1 construct: purchased Calbiochem-Novabiochem GmbH, Bad Soden, Germany
The assay is described as follows: In vitro inhibition of urokinase (Ki according to Dixon, chromogenic substrate). Type of assay: biochemical.
Details: not given
The protocol: In order to determine the inhibitory activity, 200 μl Tris buffer (0.05 mol/l containing the inhibitor, 0.154 mol/l NaCl, pH 8.0), 25 μl substrate (Pefachrome uPA, Pefachrome PL or Pefabloc TH in H2O; Pentapharm Ltd, Basle, Switzerland) and 50 μl urokinase (Calbiochem-Novabiochem GmbH, Bad Soden, Germany) or another appropriate protease e.g. plasmin, thrombin or FXa are incubated for 10 minutes at 30° C. After ca. 30 minutes and 30 cycles the absorption is determined at 405 nm by means of a microplate reader (Mediators PHL, Aureon Biosystems, Vienna, Austria). The Ki values were determined according to Dixon by linear regression using a computer program.
Take `N=C(N)Nc1ccc(CNC(=O)CNC(=O)C(CO)NC(=O)Nc2cccc(Cl)c2)cc1` (stereo not drawn) [WX-C292, 3-Chlorophenyl-aminocarbonyl-(D)-Ser-Gly-(4-guanidinobenzyl)amide hydrochloride]: the “Ki uPA” value is recorded as “no inh. *)”. The same measure, in the same setting: in the case of `N=C(N)Nc1ccc(CNC(=O)CNC(=O)C(CO)NC(=O)Nc2ccccc2Cl)cc1` (stereo not drawn) [WX-C304, 2-Chlorophenyl-aminocarbonyl-(D)-Ser-Gly-(4-guanidinobenzyl)amide hydrochloride] it was “no inh. *)”; in that of `CC(=O)c1cccc(NC(=O)NC(CO)C(=O)NCC(=O)NCc2ccc(NC(=N)N)cc2)c1` (stereo not drawn) [WX-C314, 3-Acetylphenyl-aminocarbonyl-(D)-Ser-Gly-(4-guanidinobenzyl)amide hydrochloride], “no inh. *)”.

The same assay, now with this note: read-out: Ki uPA.
`N=C(N)Nc1ccc(CNC(=O)CNC(=O)C(CO)NC(=O)Cc2ccc(O)c(O)c2)cc1` (stereo not drawn) [WX-571, 3,4-Dihydroxyphenyl-acetyl-(D)-Ser-Gly-(4-guanidinobenzyl)amide hydrochloride]: the Ki is 14700 nM. On to `N=C(N)Nc1ccc(NNC(=O)CNC(=O)[C@@H](CO)NS(=O)(=O)Cc2ccccc2)cc1` [WX-600, N-[N′-guanidino-phenyl)-hydrazinocarbonyl-methyl]-3-hydroxy-2-phenyl-methanesulfonylamino-propionamide hydrochloride], for which the inhibition constant Ki amounted to 2100 nM.

Take `CC1(C)C2CCC1(CS(=O)(=O)NC(CO)C(=O)NCC(=O)NCc1ccc(NC(=N)N)cc1)C(=O)C2` (stereo not drawn) [WX-C296, (−)-Camphor-10-sulfonyl-(D)-Ser-Gly-4-guanidinobenzyl)amide hydrochloride]: the Ki turned out to be 450 nM. Regarding `CCCCCCCCS(=O)(=O)NC(CO)C(=O)NCC(=O)NCc1ccc(NC(=N)N)cc1` (stereo not drawn) [WX-C302, n-Octyl-sulfonyl-(D)-Ser-Gly-(4-guanidinobenzyl)amide hydrochloride], the inhibition constant (Ki) was 500 nM. On the same count and under the same terms, in the case of `COc1ccc(NC(=O)NC(CO)C(=O)NCC(=O)NCc2ccc(NC(=N)N)cc2)cc1` (stereo not drawn) [WX-C306, 4-Methoxyphenyl-aminocarbonyl-(D)-Ser-Gly-(4-guanidinobenzyl)amide hydrochloride] it was 4100 nM; in that of `COc1cc(NC(=O)NC(CO)C(=O)NCC(=O)NCc2ccc(NC(=N)N)cc2)cc(OC)c1OC` (stereo not drawn) [WX-C308, 3,4,5-Tri-methoxyphenyl-aminocarbonyl-(D)-Ser-Gly-(4-guanidinobenzyl)amide hydrochloride], over 20000 nM. As to `N=C(N)Nc1ccc(CNC(=O)CNC(=O)C(CO)NC(=O)Nc2ccc(Oc3ccccc3)cc2)cc1` (stereo not drawn) [WX-C310, 4-Phenoxyphenyl-aminocarbonyl-(D)-Ser-Gly-(4-guanidinobenzyl)amide hydrochloride], the inhibitory constant (Ki) was found to be 2000 nM. On the same count and under the same terms, in the case of `CCOC(=O)c1cccc(NC(=O)NC(CO)C(=O)NCC(=O)NCc2ccc(NC(=N)N)cc2)c1` (stereo not drawn) [WX-C312, 3-Ethoxycarbonylphenyl-aminocarbonyl-(D)-Ser-Gly-(4-guanidinobenzyl)amide hydrochloride] it was 1400 nM. On the same count and under the same terms, then `N=C(N)Nc1ccc(CNC(=O)CNC(=O)C(CO)NC(=O)NC23CC4CC(CC(C4)C2)C3)cc1` (stereo not drawn) [WX-C320, 1-Adamantyl-aminocarbonyl-(D)-Ser-Gly-(4-guanidinobenzyl)amide hydrochloride], with over 20000 nM.

Regarding `N=C(N)Nc1ccc(CNC(=O)CNC(=O)C(CO)NC(=O)Nc2ccccc2Br)cc1` (stereo not drawn) [WX-C322, 2-Bromophenyl-aminocarbonyl-(D)-Ser-Gly-(4-guanidinobenzyl)amide hydrochloride], the Ki was over 20000 nM.

Take `N=C(N)Nc1ccc(CNC(=O)CNC(=O)C(CO)NC(=O)Nc2ccc3c(c2)OCCO3)cc1` (stereo not drawn) [WX-C326, 2,3-Dihydro-1,4-benzodioxin-6-yl-aminocarbonyl-(D)-Ser-Gly-(4-guanidinobenzyl)amide hydrochloride]: the Ki is over 20000 nM. Consider `N=C(N)Nc1ccc(CNC(=O)CNC(=O)C(CO)NC(=O)Nc2cccc3ccccc23)cc1` (stereo not drawn) [WX-C328, 1-Naphthyl-aminocarbonyl-(D)-Ser-Gly-(4-guanidinobenzyl)amide hydrochloride], for which the inhibition constant Ki is over 20000 nM.
